{"source": "patent US11253604B2", "about": "“Conjugate of methotrexate and peptide” (CAREGEN CO., LTD., priority 2017, dated 2022)", "key": {"NIH3T3 fibroblast lines": {"system": "NIH3T3 fibroblast lines", "assay": "Cytotoxicity test: cell proliferation by MTT analysis (Ez-cytox kit)", "settings": "NIH3T3 fibroblasts, 3.9 to 500 μM, 48 hours, vs non-treated negative control"}, "HaCaT keratinocyte lines": {"system": "HaCaT keratinocyte lines", "assay": "Cytotoxicity test: cell proliferation by MTT analysis (Ez-cytox kit)", "settings": "HaCaT keratinocytes, 3.9 to 500 μM, 48 hours, vs non-treated negative control"}}}
{"smiles": "CN(Cc1cnc2nc(N)nc(N)c2n1)c1ccc(C(=O)N[C@@H](CCC(=O)O)C(=O)O)cc1", "note": "[methotrexate, Methotrexate]", "values": [{"measurement": "cytotoxicity (inhibition of cell proliferation)", "setting": "NIH3T3 fibroblast lines", "value": "exhibited a significant degree of cytotoxicity"}, {"measurement": "cytotoxicity (inhibition of cell proliferation)", "setting": "HaCaT keratinocyte lines", "value": "exhibited a significant degree of cytotoxicity"}]}
